Test results reported in ChEMBL document CHEMBL3507680, “University of Dundee, Gates Library screen for HepG2 cell viability”.

Assay: Human HepG2 cell viability assay in 384 well format
Type: toxicity, cell-based
Parameters: dose 125 nL, time 70.5 hour; concentration not given beside the values
Details: HepG2 cells, read-out: Inhibition

Row | Compound | cytotoxicity at 70.5 h [%]
1 | COC(=O)c1cccn1C1CCN(Cc2cccc(C(N)=O)c2)CC1 | -0.0643
2 | CCOc1ncccc1NC(=O)NC1CCN(C(C)=O)CC1 | 1.62
3 | COc1ccc(OCC(=O)NS(=O)(=O)c2ccc(Br)s2)cc1 | 18.9
4 | COc1cc(C)ccc1OCC(=O)NS(=O)(=O)c1ccc(Br)s1 | -4.31
5 | Cc1cnn(CC2CCCCN2c2nn3cc(C)nc3s2)c1 (configuration not stated) | 21.1
6 | CN(CC(=O)N1CCCCC1c1nc(C(C)(C)C)cs1)C1CC1 (configuration not stated) | 1.94
7 | c1cnn(CCN2CCOC(Cn3cccn3)C2)c1 (configuration not stated) | -4.95
8 | OC1(CN2CCOC(Cn3cccn3)C2)CCCCC1 (configuration not stated) | 0.595
9 | Cc1ncccc1CNCC1CCCN1c1cccnn1 (configuration not stated) | -3.29
10 | Cc1cc(C(=O)N2CCCC(n3cncn3)C2)c(C)n1CC1CC1 (configuration not stated) | -2.26
11 | Cc1nnc(NC(=O)NCc2ccnc(N(C)C)c2)s1 | 1.13
12 | CC(NC(=O)NCc1cc(Br)cs1)c1ccccn1 (configuration not stated) | -3.66
13 | COc1ccc(C)cc1C(C)NC(=O)Cn1ccc(=O)n(C)c1=O (configuration not stated) | -1.39
14 | Cc1cc(C(=O)N2CCCC(n3cccn3)C2)c(C)n1C1CC1 (configuration not stated) | -2.54
15 | NC(=O)c1csc(C(=O)N2CCCC(n3cccn3)C2)c1 (configuration not stated) | 1.27
16 | CC(C)=CCN1CCOC(Cn2cccn2)C1 (configuration not stated) | 1.11
17 | Cc1cn2nc(N3CCCC3Cn3nc(C)nc3C)sc2n1 (configuration not stated) | -5.44
18 | NC(=O)c1ccc(C(=O)N2CCCC(n3ccnc3)C2)s1 (configuration not stated) | -2.91
19 | c1ncn(CC2CN(CC3CCCCC3)CCO2)n1 (configuration not stated) | 2.16
20 | OCC1CCCN1c1cc(NCc2ccsc2)ncn1 (configuration not stated) | 1.84
21 | Cc1ncsc1CNc1cc(N2CCCC2CO)ncn1 (configuration not stated) | 26.9
22 | CCc1ccc(CNc2cc(N3CCCC3CO)ncn2)s1 (configuration not stated) | 1.8
23 | Cc1n[nH]c(C2CN(CCc3cccs3)CCO2)n1 (configuration not stated) | 14.5
24 | CCCc1n[nH]c(C2CN(CCc3cccs3)CCO2)n1 (configuration not stated) | -3.81

Row | Compound | cytotoxicity at 70.5 h [%]
25 | COc1cccc(CN2CCCC2Cn2nc(C)nc2C)c1 (configuration not stated) | 3.03
26 | O=C(CCN1CCc2c(ncn2C2CC2)C1)NC1CCCC1 | -6.41
27 | CC(C)c1nc(C2CCCN(C(=O)c3ccc4c(c3)COC4)C2)no1 (configuration not stated) | 0.421
28 | Cc1cc(F)ccc1CNCc1cccc(C(=O)N2CCCC2)c1 | -1.53
29 | CCn1ccnc1CN1CCCN(C(=O)Cc2ccc(C)s2)CC1 | 26.4
30 | CNS(=O)(=O)c1ccc(CNC(=O)c2c(C)oc(C)c2C)cc1 | -12.9
31 | O=C(c1cccc(CNS(=O)(=O)c2ccc(F)cc2)c1)N1CCCC1 | -9.64
32 | CC(C)CCC(=O)NCCc1ccn(-c2ccccc2)n1 | -5.88
33 | CC(c1nc(C2CC2)no1)N1CCN(Cc2nnc(C3CC3)o2)CC1 (configuration not stated) | -2.67
34 | CCC(CC)C(=O)NCCc1ccn(-c2ccccc2)n1 | -0.813
35 | Cc1cnn(CC2CCCCN2C(=O)c2cnc3n[nH]c(C)c3c2)c1 (configuration not stated) | -4.13
36 | CSCc1ccc(CNC2CCCN(c3ccc(C)nn3)C2)o1 (configuration not stated) | -9.42
37 | CCn1ccnc1CN1CCCN(C(=O)Cc2ccc(F)cc2)CC1 | 17.5
38 | O=C(c1cn(-c2ccccc2)nn1)N1CCCC(n2cccn2)C1 (configuration not stated) | -3.98
39 | Cc1cnn(CC2CCCN2C(=O)c2cc(C)nc3[nH]nc(C)c23)c1 (configuration not stated) | -3.88
40 | Cc1ccc(CC(=O)N2CCCN(Cc3nccn3C)CC2)cn1 | -1.57
41 | CC(C)c1nc(C2CCCN(C(=O)c3ccc4c(c3)OCO4)C2)no1 (configuration not stated) | 18.1
42 | CCn1cc(C(=O)N2CCCC(c3noc(C)n3)C2)cn1 (configuration not stated) | -2.74
43 | CC(C)c1nc(C2CCCN(C(=O)c3ccc4nncn4c3)C2)no1 (configuration not stated) | -5.81
44 | Cc1nc(C2CCCN(C(=O)c3ccc(S(C)(=O)=O)cc3)C2)no1 (configuration not stated) | -6.59
45 | Cc1nc(C2CCCN(C(=O)c3ccoc3)C2)no1 (configuration not stated) | -7
46 | COc1ccc(CN2CCCCC2Cn2nc(C)nc2C)cc1F (configuration not stated) | -1.41
47 | COc1c(CNCc2ccc(C(=O)N3CCCC3)cc2)c(C)nn1C | 10.8
